This experiment can be described thus: diphenylpicrylhydrazyl (DPPH) radical scavenging assay. Type of experiment: biochemical. The following applies: read-out: antioxidant activity, IC50. (The DPPH test is a chemical assay of radical scavenging.)

Regarding `Cc1cc(C(C)(C)C)c(O)c(C(C)(C)C)c1` [butylatedhydroxytoluene], the IC50 worked out at 2650 µM.

As to `O=C1O[C@H]([C@@H](O)CO)C(O)=C1O` [vitamin C, Ascorbic acid], the IC50 amounted to 58 µM.

As a reminder, the IC50 is the concentration that gives 50% inhibition.

(Values after patent US11826396B2, “Nutriprotective diet” (FÉDÉRATION DES PRODUCTEURS ACÉRICOLES DU QUÉBEC, priority 2011, dated 2023).)
